# Experiments:
# bedstraw = assay: Test B pre/postemergence bedstraw; type: in vivo, Galium aparine
# In short: (§1)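 Test chemicals in a non-phytotoxic solvent mixture with surfactant were sprayed preemergence onto planted seeds and postemergence onto plants 2 to 18 cm tall (1- to 4-leaf stage). After twelve to sixteen days in a greenhouse, injury was visually rated against untreated controls from 0 (no effect) to 10 (complete control).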
# pigweed = assay: Test B pre/postemergence pigweed; type: in vivo, Amaranthus retroflexus
# In short: as §1
# corn = assay: Test B pre/postemergence corn; type: in vivo, Zea mays
# In short: as §1
# rape = assay: Test B pre/postemergence rape; type: in vivo, Brassica napus
# In short: as §1
# giant foxtail = assay: Test B pre/postemergence giant foxtail; type: in vivo, Setaria faberii
# In short: as §1
# bamyardgrass = assay: Test B flood test barnyardgrass; type: in vivo, Echinochloa crus-galli
# In short: (§2)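 Read-out is a visual response score from 0 (no effect) to 10 (complete control), assigned by comparison with untreated controls. Treatment was applied at the 2-leaf stage, and plants stayed in the greenhouse for twelve to sixteen days before scoring.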
# crabgrass = assay: Test B pre/postemergence crabgrass; type: in vivo, Digitaria sanguinalis
# In short: as §1
# smallflower flatsedge = assay: Test B flood test smallflower flatsedge; type: in vivo, Cyperus difformis
# In short: as §2
# surinam grass = assay: Test B pre/postemergence surinam grass; type: in vivo, Brachiaria decumbens
# In short: as §1
# wheat = assay: Test B pre/postemergence wheat; type: in vivo, Triticum aestivum
# In short: as §1
# morningglory = assay: Test B pre/postemergence morningglory; type: in vivo, Ipomoea hederacea
# In short: as §1
# rice = assay: Test B flood test rice; type: in vivo, Oryza sativa
# In short: as §2
# wild oat = assay: Test B pre/postemergence wild oat; type: in vivo, Avena fatua
# In short: as §1
# blackgrass = assay: Test B pre/postemergence blackgrass; type: in vivo, Alopecurus myosuroides
# In short: as §1
# sugar beet = assay: Test B pre/postemergence sugar beet; type: in vivo, Beta vulgaris
# In short: as §1
# purple nutsedge = assay: Test B pre/postemergence purple nutsedge; type: in vivo, Cyperus rotundus
# In short: as §1
# [1] = Postemergence, Rate 125 g/ha, scale of 0 to 10 where 0 is no effect and 10 is complete control
# [2] = Preemergence, Rate 125 g/ha, 0 is no effect, 10 is complete control
# [3] = Preemergence, Rate 250 g/ha, scale 0 to 10, 0 is no effect, 10 is complete control
# [4] = Preemergence, Rate 500 g/ha, scale 0 to 10 (0 no effect, 10 complete control)
# [5] = Rate 62 g/ha, Postemergence, scale of 0 to 10 where 0 is no effect and 10 is complete control
# [6] = Rate 250 g/ha, Postemergence, scale 0 to 10, 0 is no effect, 10 is complete control
# [7] = Preemergence, Rate 62 g/ha, scale 0 to 10 (0 no effect, 10 complete control)
# [8] = Rate 500 g/ha, Postemergence, scale 0 to 10
# [9] = Rate 62 g/ha, headed Pre-emergence (flood test species), scale 0 to 10 (0 no effect, 10 complete control)
# [10] = Rate 125 g/ha, Pre-emergence, flood test species, scale 0 to 10 where 0 is no effect and 10 is complete control
# [11] = Rate 250 g/ha, headed Pre-emergence (flood test species), scale 0 to 10 (0 no effect, 10 complete control)
# [12] = Rate 500 g/ha, headed Pre-emergence (flood test species), scale 0 to 10 (0 no effect, 10 complete control)
smiles,measurement,setting,value
CC(C)N(C(=O)n1oc(=O)n(C(C)C)c1=O)c1ccc(F)cc1 [Compound 131],Bedstraw plant response rating,bedstraw; [1],8
same,Bedstraw plant response rating (0 to 10 scale),bedstraw; [2],10
same,Bedstraw plant response rating,bedstraw; [3],10
same,Bedstraw plant response rating,bedstraw; [4],10
same,Bedstraw plant response rating,bedstraw; [5],7
same,"Plant response rating, Bedstraw",bedstraw; [6],9
same,Bedstraw plant response rating,"bedstraw; Rate 500 g/ha, Postemergence, scale 0 to 10, 0 no effect, 10 complete control",9
same,Redroot pigweed plant response rating,pigweed; [1],6
same,Redroot pigweed plant response rating,pigweed; [7],7
same,Redroot pigweed plant response rating (0 to 10 scale),pigweed; [2],10
same,Redroot pigweed plant response rating,pigweed; [3],10
same,Redroot pigweed plant response rating,pigweed; [4],10
same,Redroot pigweed plant response rating,pigweed; [5],2
same,"Plant response rating, Redroot pigweed",pigweed; [6],8
same,Redroot pigweed plant response rating,pigweed; [8],10
same,Corn plant response rating,corn; [1],5
same,Corn plant response rating,corn; [7],0
same,Corn plant response rating (0 to 10 scale),corn; [2],5
same,Corn plant response rating,corn; [3],9
same,Corn plant response rating,corn; [4],10
same,Corn plant response rating,corn; [5],3
same,"Plant response rating, Corn",corn; [6],6
same,Corn plant response rating,corn; [8],7
same,Rape plant response rating,rape; [1],4
same,Rape plant response rating,rape; [7],8
same,Rape plant response rating (0 to 10 scale),rape; [2],10
same,Rape plant response rating,rape; [3],10
same,Rape plant response rating,rape; [4],10
same,Rape plant response rating,rape; [5],1
same,"Plant response rating, Rape",rape; [6],7
same,Rape plant response rating,rape; [8],9
same,Giant foxtail plant response rating,giant foxtail; [1],8
same,Giant foxtail plant response rating,giant foxtail; [7],10
same,Giant foxtail plant response rating (0 to 10 scale),giant foxtail; [2],10
same,Giant foxtail plant response rating,giant foxtail; [3],10
same,Giant foxtail plant response rating,giant foxtail; [4],10
same,Giant foxtail plant response rating,giant foxtail; [5],8
same,"Plant response rating, Giant foxtail",giant foxtail; [6],9
same,Giant foxtail plant response rating,giant foxtail; [8],9
same,Barnyardgrass plant response rating,bamyardgrass; [9],0
same,Barnyardgrass plant response rating,bamyardgrass; [10],0
same,Barnyardgrass plant response rating,bamyardgrass; [11],9
same,"Plant response rating, Barnyardgrass",bamyardgrass; [12],9
same,Crabgrass plant response rating,crabgrass; [1],7
same,Crabgrass plant response rating,crabgrass; [7],2
same,Crabgrass plant response rating (0 to 10 scale),crabgrass; [2],7
same,Crabgrass plant response rating,crabgrass; [3],9
same,Crabgrass plant response rating,crabgrass; [4],10
same,Crabgrass plant response rating,crabgrass; [5],5
same,"Plant response rating, Crabgrass",crabgrass; [6],8
same,Crabgrass plant response rating,crabgrass; [8],9
same,S. Flatsedge plant response rating,smallflower flatsedge; [9],0
same,S. Flatsedge plant response rating,smallflower flatsedge; [10],3
same,S. Flatsedge plant response rating,smallflower flatsedge; [11],8
same,"Plant response rating, S. Flatsedge",smallflower flatsedge; [12],8
same,B. signalgrass plant response rating,surinam grass; [1],5
same,B. signalgrass plant response rating,surinam grass; [7],7
same,B. signalgrass plant response rating (0 to 10 scale),surinam grass; [2],8
same,B. signalgrass plant response rating,surinam grass; [3],8
same,B. signalgrass plant response rating,surinam grass; [4],9
same,B. signalgrass plant response rating,surinam grass; [5],4
same,"Plant response rating, B. signalgrass",surinam grass; [6],8
same,B. signalgrass plant response rating,"surinam grass; Rate 500 g/ha, Postemergence, scale of 0 to 10 where 0 is no effect and 10 is complete control",9
same,Wheat plant response rating,wheat; [1],3
same,Wheat plant response rating,wheat; [7],2
same,Wheat plant response rating (0 to 10 scale),wheat; [2],8
same,Wheat plant response rating,wheat; [3],8
same,Wheat plant response rating,wheat; [4],10
same,Wheat plant response rating,wheat; [5],3
same,"Plant response rating, Wheat",wheat; [6],5
same,Wheat plant response rating,wheat; [8],6
same,Morningglory plant response rating,morningglory; [1],7
same,Morningglory plant response rating,morningglory; [7],3
same,Morningglory plant response rating (0 to 10 scale),morningglory; [2],3
same,Morningglory plant response rating,morningglory; [3],5
same,Morningglory plant response rating,morningglory; [4],7
same,Morningglory plant response rating,morningglory; [5],7
same,"Plant response rating, Morningglory",morningglory; [6],8
same,Morningglory plant response rating,morningglory; [8],10
same,Rice plant response rating,rice; [9],0
same,Rice plant response rating,rice; [10],0
same,Rice plant response rating,rice; [11],5
same,"Plant response rating, Rice",rice; [12],8
same,Wild oats plant response rating,wild oat; [1],3
same,Wild oats plant response rating,wild oat; [7],10
same,Wild oats plant response rating (0 to 10 scale),wild oat; [2],10
same,Wild oats plant response rating,wild oat; [3],10
same,Wild oats plant response rating,wild oat; [4],10
same,Wild oats plant response rating,wild oat; [5],2
same,"Plant response rating, Wild oats",wild oat; [6],9
same,Wild oats plant response rating,wild oat; [8],10
same,Blackgrass plant response rating,blackgrass; [1],8
same,Blackgrass plant response rating,blackgrass; [7],10
same,Blackgrass plant response rating (0 to 10 scale),blackgrass; [2],10
same,Blackgrass plant response rating,blackgrass; [3],10
same,Blackgrass plant response rating,blackgrass; [4],10
same,Blackgrass plant response rating,blackgrass; [5],8
same,"Plant response rating, Blackgrass",blackgrass; [6],8
same,Blackgrass plant response rating,blackgrass; [8],9
same,Sugarbeets plant response rating,sugar beet; [1],3
same,Sugarbeets plant response rating,sugar beet; [7],7
same,Sugarbeets plant response rating (0 to 10 scale),sugar beet; [2],8
same,Sugarbeets plant response rating,sugar beet; [3],10
same,Sugarbeets plant response rating,sugar beet; [4],10
same,Sugarbeets plant response rating,sugar beet; [5],2
same,"Plant response rating, Sugarbeets",sugar beet; [6],6
same,Sugarbeets plant response rating,sugar beet; [8],8
same,Nutsedge plant response rating,purple nutsedge; [1],0
same,Nutsedge plant response rating,purple nutsedge; [7],0
same,Nutsedge plant response rating (0 to 10 scale),purple nutsedge; [2],0
same,Nutsedge plant response rating,purple nutsedge; [3],0
same,Nutsedge plant response rating,purple nutsedge; [4],0
same,Nutsedge plant response rating,purple nutsedge; [5],0
same,"Plant response rating, Nutsedge",purple nutsedge; [6],0
same,Nutsedge plant response rating,purple nutsedge; [8],2
